Assay results as given in patent US10300071B2, “Compositions and methods for inhibition of mycobacteria” (priority 2014, dated 2019).
Converted amounts (≈) assume the structure as drawn.

Key:
[1] = biological target: Mtb AccD6 (Mycobacterium tuberculosis, UniProt P9WQH5); experiment: biochemical; type: biochemical; conditions: for IC50: 300 μM malonyl-CoA, inhibitor 10 μM to 2000 μM, read-out: IC50
[2] = system: Mtb strain mc^2-7000; experiment: microbe, parasite or virus in culture; type: cell-based, Mycobacterium tuberculosis; conditions: Mycobacterium tuberculosis, 144 h; 6 days incubation at 37° C., resazurin, read on the 7th day; read-out: MIC
[3] = system: S. cerevisiae
[4] = system: human fibroblast

Mtb AccD6, sequence (P9WQH5 whole entry, looked up): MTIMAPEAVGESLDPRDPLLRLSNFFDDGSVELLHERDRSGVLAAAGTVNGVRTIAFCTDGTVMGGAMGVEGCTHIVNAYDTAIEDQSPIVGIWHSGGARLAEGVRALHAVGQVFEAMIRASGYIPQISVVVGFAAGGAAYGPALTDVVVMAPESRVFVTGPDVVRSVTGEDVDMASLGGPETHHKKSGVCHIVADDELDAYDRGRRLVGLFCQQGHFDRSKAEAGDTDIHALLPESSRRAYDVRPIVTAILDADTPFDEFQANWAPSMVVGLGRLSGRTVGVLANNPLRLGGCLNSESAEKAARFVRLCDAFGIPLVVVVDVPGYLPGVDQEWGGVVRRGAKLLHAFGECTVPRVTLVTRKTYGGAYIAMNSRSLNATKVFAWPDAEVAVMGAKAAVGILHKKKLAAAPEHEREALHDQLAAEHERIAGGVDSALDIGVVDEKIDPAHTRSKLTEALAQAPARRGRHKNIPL

SMILES	IC50 [1]	MIC [2]	concentrations at which not toxic, s. cerevisiae cytotoxicity [3]	concentrations at which not toxic, human fibroblast cytotoxicity [4]	inhibition at 15 µM ([1]; 15 uM)
CON(C)C(=O)COc1ccc(Oc2cnc3cc(Cl)ccc3n2)cc1 [NZ-290, 2-{4-[(6-chloroquinoxalin-2-yl)oxy]phenoxy}-N-methoxy-N-methylacetamide]	2.5 µM	1.5 µM (≈ 0.561 µg/mL)	≥ 100 µM	≥ 100 µM	–
CONC(=O)Cc1ccc(Oc2nc3ccc(Cl)cc3s2)cc1 [NZ-293, 2-{4-[(6-chloro-1,3-benzothiazol-2-yl)oxy]phenyl}-N-methoxyacetamide]	1 µM	3 µM (≈ 1.05 µg/mL)	≥ 100 µM	≥ 100 µM	–
COC(=O)Cc1ccc(Oc2nc3ccc(F)cc3s2)cc1 [NZ-294, methyl 2-{4-[(6-fluoro-1,3-benzothiazol-2-yl)oxy]phenyl}acetate]	12.5 µM	3 µM	≥ 100 µM	≥ 100 µM	–
CONC(=O)[C@@H](C)Oc1ccc(Oc2cnc3cc(Cl)ccc3n2)cc1 [NZ-295, (2R)-2-{4-[(6-chloroquinoxalin-2-yl)oxy]phenoxy}-N-methoxypropanamide]	0.93 µM	4.5 µM (≈ 1.68 µg/mL)	≥ 100 µM	≥ 100 µM	–
O=C(O)Cc1ccc(Oc2cnc3cc(Cl)ccc3n2)cc1 [NZ-298, 2-{4-[(6-chloroquinoxalin-2-yl)oxy]phenyl}acetic acid]	0.28 µM	25 µM (≈ 7.87 µg/mL)	≥ 100 µM	≥ 100 µM	–
O=C(O)Cc1ccc(Oc2nc3ccc(F)cc3s2)cc1 [NZ-299, 2-{4-[(6-fluoro-1,3-benzothiazol-2-yl)oxy]phenyl}acetic acid]	0.324 µM	12 µM (≈ 3.64 µg/mL)	≥ 100 µM	≥ 100 µM	–
CONC(=O)Cc1ccc(Oc2nc3ccc(F)cc3s2)cc1 [NZ-300, 2-{4-[(6-fluoro-1,3-benzothiazol-2-yl)oxy]phenyl}-N-methoxyacetamide]	0.82 µM	7.5 µM (≈ 2.49 µg/mL)	≥ 100 µM	≥ 100 µM	–
CONC(=O)Cc1ccc(Oc2cnc3cc(Cl)ccc3n2)cc1 [NZ-301, 2-{4-[(6-chloroquinoxalin-2-yl)oxy]phenyl}-N-methoxyacetamide]	0.265 µM	12 µM (≈ 4.13 µg/mL)	≥ 100 µM	≥ 100 µM	–
O=C(O)COc1ccc(Oc2nc3ccc(F)cc3s2)cc1 [NZ-304, 2-{4-[(6-fluoro-1,3-benzothiazol-2-yl)oxy]phenoxy}acetic acid]	3.4 µM	25 µM (≈ 7.98 µg/mL)	≥ 100 µM	≥ 100 µM	–
CONC(=O)COc1ccc(Oc2nc3ccc(F)cc3s2)cc1 [NZ-305, 2-{4-[(6-fluoro-1,3-benzothiazol-2-yl)oxy]phenoxy}-N-methoxyacetamide]	–	3 µM (≈ 1.05 µg/mL)	≥ 100 µM	≥ 100 µM	50%
CCNC(=O)COc1ccc(Oc2cnc3cc(Cl)ccc3n2)cc1 [NZ-306, 2-{4-[(6-chloroquinoxalin-2-yl)oxy]phenoxy}-N-ethylacetamide]	4.6 µM	25 µM (≈ 8.94 µg/mL)	≥ 100 µM	≥ 100 µM	–
CC(C)NC(=O)COc1ccc(Oc2cnc3cc(Cl)ccc3n2)cc1 [NZ-307, 2-{4-[(6-chloroquinoxalin-2-yl)oxy]phenoxy}-N-(propan-2-yl)acetamide]	2.5 µM	3 µM (≈ 1.12 µg/mL)	≥ 100 µM	≥ 100 µM	–
COC(=O)C(C)c1ccc(Oc2cnc3cc(Cl)ccc3n2)cc1 (stereo not shown) [NZ-308, methyl 2-{4-[(6-chloroquinoxalin-2-yl)oxy]phenyl}propanoate]	8 µM	4.5 µM (≈ 1.54 µg/mL)	≥ 100 µM	≥ 100 µM	–
CC(C(=O)O)c1ccc(Oc2cnc3cc(Cl)ccc3n2)cc1 (stereo not shown) [NZ-309, 2-{4-[(6-chloroquinoxalin-2-yl)oxy]phenyl}propanoic acid]	0.172 µM	12 µM (≈ 3.95 µg/mL)	≥ 100 µM	≥ 100 µM	–
CONC(=O)C(C)c1ccc(Oc2cnc3cc(Cl)ccc3n2)cc1 (stereo not shown) [NZ-310, 2-{4-[(6-chloroquinoxalin-2-yl)oxy]phenyl}-N-methoxypropanamide]	0.182 µM	6 µM (≈ 2.15 µg/mL)	≥ 100 µM	≥ 100 µM	–
CC(C(=O)O)c1ccc(Oc2nc3ccc(Cl)cc3s2)cc1 (stereo not shown) [NZ-312, 2-{4-[(6-chloro-1,3-benzothiazol-2-yl)oxy]phenyl}propanoic acid]	0.26 µM	6 µM (≈ 2 µg/mL)	≥ 100 µM	≥ 100 µM	–
COC(=O)C(C)(C)Oc1ccc(Oc2cnc3cc(Cl)ccc3n2)cc1 [NZ-314, methyl 2-{4-[(6-chloroquinoxalin-2-yl)oxy]phenoxy}-2-methylpropanoate]	17.5 µM	6 µM (≈ 2.24 µg/mL)	≥ 100 µM	≥ 100 µM	–
CC(C)(Oc1ccc(Oc2cnc3cc(Cl)ccc3n2)cc1)C(=O)O [NZ-315, 2-{4-[(6-chloroquinoxalin-2-yl)oxy]phenoxy}-2-methylpropanoic acid]	1.7 µM	25 µM (≈ 8.97 µg/mL)	≥ 100 µM	≥ 100 µM	–
CC(C)(Oc1ccc(Oc2nc3ccc(Cl)cc3s2)cc1)C(=O)O [NZ-318, 2-{4-[(6-chloro-1,3-benzothiazol-2-yl)oxy]phenoxy}-2-methylpropanoic acid]	1.5 µM	12 µM (≈ 4.37 µg/mL)	≥ 100 µM	≥ 100 µM	–
CONC(=O)C(C)(C)Oc1ccc(Oc2nc3ccc(Cl)cc3s2)cc1 [NZ-319, 2-{4-[(6-chloro-1,3-benzothiazol-2-yl)oxy]phenoxy}-N-methoxy-2-methylpropanamide]	20 µM	6 µM (≈ 2.36 µg/mL)	≥ 100 µM	≥ 100 µM	–
CC(C)(C)OC(=O)Nc1ccc(Oc2cnc3cc(Cl)ccc3n2)cc1 [NZ-321, tert-butyl N-{4-[(6-chloroquinoxalin-2-yl)oxy]phenyl}carbamate]	20 µM	50 µM (≈ 18.6 µg/mL)	≥ 100 µM	≥ 100 µM	–
O=C(COc1ccc(Oc2cnc3cc(Cl)ccc3n2)cc1)NOCC1CC1 [NZ-323, 2-{4-[(6-chloroquinoxalin-2-yl)oxy]phenoxy}-N-(cyclopropylmethoxy)acetamide]	3.6 µM	6 µM (≈ 2.4 µg/mL)	≥ 100 µM	≥ 100 µM	–
CC(C)ONC(=O)COc1ccc(Oc2cnc3cc(Cl)ccc3n2)cc1 [NZ-326, 2-{4-[(6-chloroquinoxalin-2-yl)oxy]phenoxy}-N-(propan-2-yloxy)acetamide]	2.5 to 4.4 µM	3 µM (≈ 1.16 µg/mL)	≥ 100 µM	≥ 100 µM	–
CC(C)NC(=O)C(C)c1ccc(Oc2nc3ccc(Cl)cc3s2)cc1 (stereo not shown) [NZ-327, 2-{4-[(6-chloro-1,3-benzothiazol-2-yl)oxy]phenyl}-N-(propan-2-yl)propanamide]	0.3 µM	12 µM (≈ 4.5 µg/mL)	≥ 100 µM	≥ 100 µM	–
COC(=O)C(C)c1ccc(Oc2nc3ccc(F)cc3s2)cc1 (stereo not shown) [NZ-328, methyl 2-{4-[(6-fluoro-1,3-benzothiazol-2-yl)oxy]phenyl}propanoate]	10 µM	12 µM (≈ 3.98 µg/mL)	≥ 100 µM	≥ 100 µM	–
